The results in this text go back to article PMC6245356, “A New Sesquiterpenoid Hydroquinone from the Marine Sponge Dysidea arenaria” (Molecules, 2008).

pIC50: −log10 of the molar value.

The assay deals with HIV-1 RT (Human immunodeficiency virus type 1 group M subtype B, UniProt P04585). Put plainly: in vitro anti-HIV activity: inhibition of HIV-1 RT. It counts as biochemical. Particulars: for pIC50 / activity against HIV-1 RT (result in words): in vitro; for activity against HIV-1 RT (result in words): same biological target as the IC50 values.

On to `C=C1CCC[C@H]2[C@](C)(CC3=C(O)C(=O)C=C(OC)C3=O)[C@@H](C)CC[C@]12C` [Compound 3, isosemnonorthoquinone], for which the pIC50 (in general, −log10 of the IC50, conventionally taken in molar units) was 3.62.
Turning to `O=C(O)P(=O)(O)O` [PFA, reference compound], the “inhibition ratio of HIV-1 RT” value (at 0.05 µM, positive control) came to 85%.
Turning to `C=C1CCC[C@H]2[C@](CO)(Cc3cc(C(=O)OC)c(O)c(OC)c3O)[C@@H](C)CC[C@]12C` [Compound 1, 19-hydroxy-polyfibrospongol B], the “activity against HIV-1 RT (result in words)” value was “inactive”.
`C=C1CCC[C@H]2[C@](C)(CC3=C(O)C(=O)C=C(N)C3=O)[C@@H](C)CC[C@]12C` [Compound 5, smenospongine] had a pIC50 of 3.75.
Consider `C=C1CCC[C@H]2[C@](CO)(Cc3cc(C(=O)OC)cc(OC)c3O)[C@@H](C)CC[C@]12C` [Compound 2, polyfibrospongol B], for which the “activity against HIV-1 RT (result in words)” value is “inactive”.
The compound `C=C1CCC[C@H]2[C@](C)(CC(=O)C3=C(OC)C(O)OC3=O)[C@@H](C)CC[C@]12C` (stereo partly drawn) [Compound 6, smenotronic acid] gave a pIC50 of 3.88.
